Assay results from the CheMixHub viscosity set.
± gives the uncertainty stated by the source.

Test: xn = mol fraction of the nth substance listed

CNC=O + O
viscosity [mPa·s]
Conditions | 298 K | 298.15 K | 303 K | 303.15 K | 308.15 K | 313.15 K | 318.15 K | 323.15 K
101 kPa, x1 = 0.0328 | 1.05 ± 0.0093 | – | 0.9456 ± 0.0084 | – | – | – | – | –
101 kPa, x1 = 0.1 | – | 1.384 ± 0.021 | – | 1.219 ± 0.019 | 1.083 ± 0.017 | 0.9687 ± 0.016 | 0.871 ± 0.014 | –
101 kPa, x1 = 0.1158 | 1.305 ± 0.012 | – | 1.176 ± 0.01 | – | – | – | – | –
101 kPa, x1 = 0.1999 | – | 1.754 ± 0.027 | – | 1.539 ± 0.024 | 1.363 ± 0.021 | 1.215 ± 0.019 | 1.084 ± 0.017 | –
101 kPa, x1 = 0.2341 | 1.573 ± 0.014 | – | 1.425 ± 0.013 | – | – | – | – | –
101 kPa, x1 = 0.3002 | – | 1.967 ± 0.03 | – | 1.728 ± 0.026 | 1.532 ± 0.024 | 1.366 ± 0.021 | 1.222 ± 0.019 | –
101 kPa, x1 = 0.4001 | – | – | – | 1.805 ± 0.028 | 1.608 ± 0.025 | 1.44 ± 0.023 | 1.3 ± 0.021 | –
101 kPa, x1 = 0.4163 | – | – | 1.625 ± 0.015 | – | – | – | – | –
101 kPa, x1 = 0.4998 | – | 2.031 ± 0.031 | – | 1.818 ± 0.028 | 1.636 ± 0.025 | 1.472 ± 0.023 | 1.331 ± 0.021 | –
101 kPa, x1 = 0.6006 | – | 1.975 ± 0.03 | – | 1.772 ± 0.027 | 1.59 ± 0.025 | 1.437 ± 0.023 | 1.304 ± 0.021 | –
101 kPa, x1 = 0.6995 | – | 1.902 ± 0.029 | – | 1.712 ± 0.027 | 1.546 ± 0.024 | 1.401 ± 0.022 | 1.273 ± 0.02 | –
101 kPa, x1 = 0.7334 | 1.658 ± 0.016 | – | 1.5 ± 0.014 | – | – | – | – | –
101 kPa, x1 = 0.8 | – | 1.836 ± 0.029 | – | 1.658 ± 0.026 | 1.502 ± 0.024 | 1.364 ± 0.022 | 1.243 ± 0.02 | –
101 kPa, x1 = 0.8997 | – | 1.781 ± 0.028 | – | 1.609 ± 0.026 | 1.459 ± 0.023 | 1.327 ± 0.022 | 1.21 ± 0.02 | –
101.33 kPa, x1 = 0.0969 | – | – | – | 1.216 ± 0.0096 | 1.086 ± 0.0087 | 0.974 ± 0.0079 | 0.8818 ± 0.0073 | 0.8012 ± 0.0067
101.33 kPa, x1 = 0.2015 | – | – | – | 1.529 ± 0.012 | 1.36 ± 0.011 | 1.219 ± 0.0097 | 1.098 ± 0.0088 | 0.9948 ± 0.0081
101.33 kPa, x1 = 0.2996 | – | – | – | 1.718 ± 0.013 | 1.531 ± 0.012 | 1.373 ± 0.011 | 1.24 ± 0.0099 | 1.124 ± 0.0091
101.33 kPa, x1 = 0.4005 | – | – | – | 1.792 ± 0.014 | 1.603 ± 0.013 | 1.445 ± 0.012 | 1.308 ± 0.011 | 1.187 ± 0.0097
101.33 kPa, x1 = 0.4994 | – | – | – | 1.789 ± 0.014 | 1.61 ± 0.013 | 1.458 ± 0.012 | 1.327 ± 0.011 | 1.211 ± 0.01
101.33 kPa, x1 = 0.5995 | – | – | – | 1.753 ± 0.014 | 1.576 ± 0.013 | 1.443 ± 0.012 | 1.32 ± 0.011 | 1.21 ± 0.01
101.33 kPa, x1 = 0.6999 | – | – | – | 1.693 ± 0.014 | 1.542 ± 0.013 | 1.412 ± 0.012 | 1.296 ± 0.011 | 1.193 ± 0.01
101.33 kPa, x1 = 0.7999 | – | – | – | 1.649 ± 0.014 | 1.509 ± 0.013 | 1.388 ± 0.012 | 1.279 ± 0.011 | 1.182 ± 0.01
101.33 kPa, x1 = 0.9001 | – | – | – | 1.61 ± 0.014 | 1.478 ± 0.013 | 1.361 ± 0.012 | 1.261 ± 0.011 | 1.164 ± 0.011

c1ccc2c(c1)CCCC2 + CCCCCCCCCC
viscosity [mPa·s]
Conditions | 293.15 K | 298.15 K | 303.15 K | 308.15 K | 313.15 K | 318.15 K | 323.15 K
100 kPa, x1 = 0.0986 | 0.954 ± 0.02 | 0.886 ± 0.019 | 0.827 ± 0.018 | 0.774 ± 0.016 | 0.727 ± 0.015 | 0.685 ± 0.015 | 0.647 ± 0.014
100 kPa, x1 = 0.2025 | 1.008 ± 0.021 | 0.936 ± 0.02 | 0.871 ± 0.019 | 0.814 ± 0.017 | 0.763 ± 0.016 | 0.718 ± 0.015 | 0.678 ± 0.014
100 kPa, x1 = 0.2995 | 1.065 ± 0.023 | 0.987 ± 0.021 | 0.919 ± 0.02 | 0.859 ± 0.018 | 0.805 ± 0.017 | 0.757 ± 0.016 | 0.713 ± 0.015
100 kPa, x1 = 0.3994 | 1.133 ± 0.024 | 1.043 ± 0.022 | 0.973 ± 0.021 | 0.908 ± 0.019 | 0.85 ± 0.018 | 0.798 ± 0.017 | 0.752 ± 0.016
100 kPa, x1 = 0.5005 | 1.221 ± 0.026 | 1.127 ± 0.024 | 1.045 ± 0.022 | 0.973 ± 0.021 | 0.909 ± 0.019 | 0.852 ± 0.018 | 0.802 ± 0.017
100 kPa, x1 = 0.5989 | 1.329 ± 0.028 | 1.224 ± 0.026 | 1.132 ± 0.024 | 1.047 ± 0.022 | 0.977 ± 0.021 | 0.916 ± 0.019 | 0.859 ± 0.018
100 kPa, x1 = 0.6999 | 1.468 ± 0.031 | 1.347 ± 0.029 | 1.243 ± 0.026 | 1.151 ± 0.024 | 1.07 ± 0.023 | 0.999 ± 0.021 | 0.936 ± 0.02
100 kPa, x1 = 0.7987 | 1.644 ± 0.035 | 1.495 ± 0.032 | 1.382 ± 0.029 | 1.276 ± 0.027 | 1.182 ± 0.025 | 1.101 ± 0.023 | 1.028 ± 0.022
100 kPa, x1 = 0.9002 | 1.878 ± 0.04 | 1.708 ± 0.036 | 1.564 ± 0.033 | 1.437 ± 0.031 | 1.326 ± 0.028 | 1.23 ± 0.026 | 1.147 ± 0.024
101 kPa, x2 = 0.1001 | 1.873 ± 0.014 | 1.703 ± 0.013 | 1.56 ± 0.012 | – | 1.328 ± 0.01 | – | –
101 kPa, x2 = 0.2044 | 1.629 ± 0.012 | 1.486 ± 0.011 | 1.368 ± 0.011 | – | 1.175 ± 0.01 | – | –
101 kPa, x2 = 0.2961 | 1.471 ± 0.011 | 1.349 ± 0.011 | 1.245 ± 0.01 | – | 1.073 ± 0.009 | – | –
101 kPa, x2 = 0.3964 | 1.345 ± 0.011 | 1.238 ± 0.01 | 1.148 ± 0.009 | – | 0.995 ± 0.009 | – | –
101 kPa, x2 = 0.4994 | 1.226 ± 0.01 | 1.134 ± 0.009 | 1.053 ± 0.009 | – | 0.917 ± 0.008 | – | –
101 kPa, x2 = 0.6017 | 1.143 ± 0.009 | 1.06 ± 0.009 | 0.986 ± 0.009 | – | 0.862 ± 0.008 | – | –
101 kPa, x2 = 0.6964 | 1.071 ± 0.009 | 0.993 ± 0.009 | 0.925 ± 0.008 | – | 0.809 ± 0.008 | – | –
101 kPa, x2 = 0.7971 | 1.015 ± 0.009 | 0.942 ± 0.008 | 0.878 ± 0.008 | – | 0.77 ± 0.008 | – | –
101 kPa, x2 = 0.8894 | 0.968 ± 0.008 | 0.9 ± 0.008 | 0.838 ± 0.008 | – | 0.737 ± 0.007 | – | –
